Data: patent US20090143456A1, “Polyamine Analogs as Modulators of Cell Migration and Cell Motility” (priority 2005, published 2009)

System: Human glioblastoma SNB19 cells
Assay: LIVE/DEAD reagent staining to assess compound toxicity at end of migration assay
Assay type: cell-based
Description: The 96 well slides were first coated with 0.1 μg/ml laminin, a motility stimulating substrate, in PBS for 1 hour at 37° C., rinsed three times in PBS, and then treated with 0.1% BSA in PBS for 1 hour at room temperature. Human glioblastoma SNB19 cells were plated at 3,000 cells per sedimentation channel and incubated overnight to allow cell sedimentation and attachment to the substrate. After removal of the manifold, the cells were treated with the compounds either at 0, 0.1 μM, 1 μM or […]. The experiment was done in duplicate with appropriate controls on each slide. After adding the compounds, the diameter of each cell population was initially measured using an inverted microscope and image analysis software (Scion Image Corp, Frederick, Md.). Cells were incubated an additional 72 hours in the presence (or not) of the pharmacological compounds. The diameter of each cell population was again assessed at 24 hours, 48 hours and 72 hours to calculate the overall migration rate. Migration results were reported as the specific radial movement (μm/day) of the cell population. […] At the end of the assay, cells were rinsed with PBS, then treated with LIVE/DEAD reagent staining (Molecular Probes, Eugene, Oreg.) to assess compound toxicity.
FIGS. 1-38 show data for the activity of compounds in the migration assay. […]

Q: For `c1ccc(C2(NCCCCNCC3CC3CNCCCCNC3(c4ccccc4)CC3)CC2)cc1` (centres unmarked) [SL-11255, 1,2-bis((1-phenylcyclopropylaminobutyl)aminomethyl)cyclopropane], which “cytotoxic effects (Live/Dead assay)” value (10 μM, at time of staining (end of 72 hour assay)) is on record?
A: severe cytotoxic effects

Q: And the “toxicity (Live/Dead assay)” value (lower concentrations (below 10 μM))?
A: not toxic
